Test results: patent US9713332B2, “Glyphosate application for weed control in Brassica” (priority 2013, dated 2017)

Assays:
[1] = tested on: GAT1 and GAT2 events; assay: Herbicide efficacy trials in 9 locations, herbicide-induced necrosis and chlorosis injury; assay type: in vivo, Brassica
Method: (§1) Transgenic events expressing GAT1 and GAT2 genes were tested herein. GAT1, as mentioned herein is the Brassica GAT event DP-073496-4 (PCT International Patent Application No. PCT/US2010/058011, incorporated by reference). GAT2, as mentioned herein is another transgenic Brassica line expressing a GAT variant.
Chlorosis percent injury describes a visual rating of the percentage of the plant with a yellowing of the apical meristem, newest leaves or older leaves, where 100% denotes that all tissue is yellow, and 0% denotes the absence of yellowing tissue in plants treated with herbicide.
GAT2 events were subjected to herbicide efficacy trials along with the GAT1 as diagonal check in 9 different locations. The herbicide efficacy trials consisted of 6 treatments that included: a control with no glyphosate, 2X, 4X or 8X glyphosate administered at the 3-5 leaf stage (1X=675 g ae/ha), a 2X administered during the 3-5 leaf stage and during the green bud stage (+2X Green Bud), and a 2X administered during the 3-5 leaf stage and during 10% bloom (+2X 10% Bloom). Herbicide-induced necrosis and chlorosis injury was recorded at leaf stages 5, 10, 21 and 30 DAT (days after treatment). […] Yield from different treatments was expressed as a percent to the 2X treatment at the 3 to 5 leaf stage. […] The application of 4X glyphosate at the 3-5 leaf stage led to a 6 to 8% decrease in yield compared to the 2X treatment, and at the 8X rate, yield decreased from 10 to 12% in treated events compared to the 2X treatment (FIG. 3).

[2] = tested on: canola event DP-73496-4 (GAT1); assay: Herbicide efficacy field trials, chlorosis / crop response after late stage glyphosate application; assay type: in vivo
Text: Field trials were split plot designed with glyphosate treatments as the main factor and entries as the subplot. Entries were randomized within the split factor, and the split was randomized within the replicate.
The following treatments with glyphosate were used as detailed below at different growth stages. In these tests, 1X glyphosate treatment was 675 g ae/ha, 2X glyphosate treatment was 1350 g ae/ha, 3X glyphosate treatment was 2025 g ae/ha and 4X glyphosate treatment was 2700 g ae/ha. All treatments were applied using a mechanical sprayer. For example, in Treatment 1 below, “2X cotyledon” describes a treatment of 1350 g ae/ha of glyphosate at the cotyledon growth stage. Various treatments were tested over a two year period and are described below.
(§2) • 1. 2X cotyledon • 2. 2X 3-5 leaf stage • 3. 2X cot+2X 3-5 leaf stage • 4. 2X cot+2X bolting BBCH55 • 5. 4X cotyledon • 6. 4X 3-5 leaf stage Treatments Tested in Year 2: • 1. 1X cotyledon+1X 3-5 leaf stage • 2. 2X cotyledon+2X 3-5 leaf stage • 3. 1X cotyledon+1X green bud BBCH51 • 4. 2X cotyledon+2X green bud BBCH51 • 5. 1X cotyledon+1X 10% flower BBCH61 • 6. 2X cotyledon+2X 10% flower BBCH61
Percent chlorosis was determined. Visual rating of chlorosis on plants was taken during the period indicated (i.e. 3-5 days) after spray application. Yellowing of the apical meristem, newest leaves or older leaves indicated herbicide-induced chlorotic injury. 100%=all tissue is yellow, 0%=no signs of yellowing tissue.
Late stage glyphosate applications are applications of glyphosate at later growth stages than on the glyphosate label. […] In Year 1, the expanded window application of glyphosate was 2X cot+2X bolting BBCH55; a 2X treatment during the cotyledon stage and an additional 2X treatment during the plant growth stage where individual flower buds (main inflorescence) are visible but are still closed. In Year 2, 1X cotyledon, 1X green bud BBCH51; 2X cotyledon, 2X green bud BBCH51; 1X cotyledon, 1X 10% flower BBCH61; and 2X cotyledon, 2X 10% flower BBCH61 expanded window treatments were included.

[3] = tested on: canola event DP-73496-4 (GAT1); assay: Herbicide efficacy field trials, determination of yield; assay type: in vivo
Method: Field trials were split plot designed with glyphosate treatments as the main factor and entries as the subplot. The split-plot design was used since more than one glyphosate treatment in each location was evaluated, where a different treatment to an individual plot was applied. In split-plot, the levels of the main-plot factor (glyphosate treatments) and the sub-plot factors (individual event entries) within the main-plots were randomized.
The following treatments with glyphosate were used as detailed below at different growth stages. In these tests, 1X glyphosate treatment was at 675 g ae/ha, 2X glyphosate treatment was at 1350 g ae/ha, 3X glyphosate treatment was at 2025 g ae/ha and 4X glyphosate treatment was at 2700 g ae/ha as active ingredient of glyphosate. All treatments were applied using a mechanical sprayer. For example, in Treatment 1 below, “2X cotyledon” describes a treatment of 1350 g ae/ha of glyphosate at the cotyledon growth stage. Various treatments were tested over a two year period and are described below.
as §2
To reduce the growth of weeds in the control plots, conventional herbicides or mechanical pulling of weeds were used as needed. There was no glyphosate applied to the control plots and was used as the control/base to which other glyphosate treatments were compared. The control plots may have had one or more weeds present during the growing season. Control is based on conventional herbicides that are registered for use in all canola.
Plots were considered desiccated when 60-70% of the seed had turned from green to black colour. Combining occurred 5-14 days after desiccation depending on the weather conditions. Each plot was harvested individually. Moisture and weight were recorded directly on the combine. Yield was determined for the GAT1 event.
Various locations were used in the test. Trials were evaluated across 10 locations in both Year 1 and Year 2. Locations included several sites in the short, mid, and long season zones across both years.
The event that was tested was canola event DP-73496-4 (GAT1) (PCT International Patent Application No. PCT/US2010/058011, incorporated by reference).
Late stage glyphosate applications are applications of glyphosate at later growth stages than on the glyphosate label. […]

[4] = tested on: GAT1 and GAT2 events; assay: Herbicide efficacy trials in 9 locations, yield as percent to the 2X treatment at the 3 to 5 leaf stage; assay type: in vivo, Brassica; settings: 2X at the 3-5 leaf stage and 2X during green bud or 10% bloom stage; FIG. 3
Method: as §1
Percentage of yield relative to 2X describes the yield obtained for the GAT events treated with respective glyphosate herbicide treatments compared to the same GAT events subjected to a solution containing 2X glyphosate treatment at the 3 to 5 leaf stage, expressed as a percentage of the 2X treatment at the 3 to 5 leaf stage.
GAT2 events were subjected to herbicide efficacy trials along with the GAT1 as diagonal check in 9 different locations. The herbicide efficacy trials consisted of 6 treatments that included: a control with no glyphosate, 2X, 4X or 8X glyphosate administered at the 3-5 leaf stage (1X=675 g ae/ha), a 2X administered during the 3-5 leaf stage and during the green bud stage (+2X Green Bud), and a 2X administered during the 3-5 leaf stage and during 10% bloom (+2X 10% Bloom). Herbicide-induced necrosis and chlorosis injury was recorded at leaf stages 5, 10, 21 and 30 DAT (days after treatment). […] Yield from different treatments was expressed as a percent to the 2X treatment at the 3 to 5 leaf stage. […]

O=C(O)CNCP(=O)(O)O [glyphosate]
chlorotic injury ([1]; both GAT1 and GAT2 events, even at 8X spray rates, and during green bud and 10% bloom, FIG. 2): Negligible
herbicide-induced necrotic injury ([1]; even at 8X spray rates (1X = 675 g ae/ha), FIG. 1): minimally observed
herbicide-induced injury (necrosis, chlorosis) beyond 10 DAT ([1]; rated 5, 10, 21 and 30 DAT, 2X, 4X, 8X at 3-5 leaf, 2X+2X green bud, 2X+2X 10% bloom): No injury was observed
chlorosis ([2]; Year 1, 2X Cot and 2X Bolting BBCH55 (2X = 1350 g ae/ha), all three hybrids, one location): 1%
recovery of transient chlorosis ([2]; Year 1, 2X Cot and 2X Bolting BBCH55, 10 days after glyphosate application): Full recovery
chlorosis ([2]; Year 1, 2X Cot and 2X Bolting BBCH55, one hybrid background, second location): 3%
crop response ([2]; Year 1, 2X Cot and 2X Bolting BBCH55, remaining eight locations): no crop response
crop response ([2]; Year 2, extended window glyphosate treatments, four GAT-expressing canola backgrounds): did not have any crop response
yield compared to the control treatment ([3]; Year 1, 2X Cot and 2X Bolting BBCH55): not significantly different
yield compared to the control treatment ([3]; Year 2, late split applications at 2X glyphosate (1350 g ae/ha), BBCH51 and BBCH61): did not result in yield reduction
yield compared to the control treatment ([3]; Year 2, split applications 1X Cot and 1X BBCH51 (green bud), 1X Cot and 1X BBCH61 (10% flower), four backgrounds, 1X = 675 g ae/ha): did not result in yield reduction
yield of GAT1 compared to the controls ([3]; at X treatment): did not show a reduction in yield
differences in yield compared to the 2X treatment at 3-5 leaf stage [4]: no appreciable differences in yield
